Experimental data taken from ChEMBL document CHEMBL2086254, “Synthesis and identification of novel indolo[2,3-a]pyrimido[5,4-c]carbazoles as a new class of anti-cancer agents” (Eur J Med Chem, 2012).

What was measured:
Assay type in all cases: functional
A498 = experiment: Cytotoxicity against human A498 cells assessed as cell growth at 10 uM after 48 hrs by SRB assay relative to control; conditions: A498, 48 h, read-out: Activity
RXF 393 = experiment: Cytotoxicity against human RXF393 cells assessed as cell growth at 10 uM after 48 hrs by SRB assay relative to control; conditions: RXF 393, 48 h, read-out: Activity
TK-10 = experiment: Cytotoxicity against human TK10 cells assessed as cell growth at 10 uM after 48 hrs by SRB assay relative to control; conditions: TK-10, 48 h, read-out: Activity
PC-3 = experiment: Cytotoxicity against human PC3 cells assessed as cell growth at 10 uM after 48 hrs by SRB assay relative to control; conditions: PC-3, 48 h, read-out: Activity
DU-145 = experiment: Cytotoxicity against human DU145 cells assessed as cell growth at 10 uM after 48 hrs by SRB assay relative to control; conditions: DU-145, 48 h, read-out: Activity
[1] = Cytotoxicity against human Hs 578T cells assessed as cell growth at 10 uM after 48 hrs by SRB assay relative to control; conditions: read-out: Activity
BT-549 = experiment: Cytotoxicity against human BT549 cells assessed as cell growth at 10 uM after 48 hrs by SRB assay relative to control; conditions: BT-549, 48 h, read-out: Activity
T47D = experiment: Cytotoxicity against human T47D cells assessed as cell growth at 10 uM after 48 hrs by SRB assay relative to control; conditions: read-out: Activity
SNB-75 = experiment: Cytotoxicity against human SNB75 cells assessed as cell growth at 10 uM after 48 hrs by SRB assay relative to control; conditions: SNB-75, 48 h, read-out: Activity
U-251 = experiment: Cytotoxicity against human U251 cells assessed as cell growth at 10 uM after 48 hrs by SRB assay relative to control; conditions: U-251, 48 h, read-out: Activity
MDA-MB-435 = experiment: Cytotoxicity against human MDA-MB-435 cells assessed cell growth at 10 uM after 48 hrs by SRB assay relative to control
IGROV-1 = experiment: Cytotoxicity against human IGROV1 cells assessed as cell growth at 10 uM after 48 hrs by SRB assay relative to control; conditions: IGROV-1, 48 h, read-out: Activity
UO-31 = experiment: Cytotoxicity against human UO31 cells assessed as cell growth at 10 uM after 48 hrs by SRB assay relative to control; conditions: UO-31, 48 h, read-out: Activity
MCF7 = experiment: Cytotoxicity against human MCF7 cells assessed as cell growth at 10 uM after 48 hrs by SRB assay relative to control; conditions: MCF7, 48 h, read-out: Activity
HCT-116 = experiment: Cytotoxicity against human HCT116 cells assessed as cell growth at 10 uM after 48 hrs by SRB assay relative to control; conditions: HCT-116, 48 h, read-out: Activity
SW-620 = experiment: Cytotoxicity against human SW620 cells assessed as cell growth at 10 uM after 48 hrs by SRB assay relative to control; conditions: SW-620, 48 h, read-out: Activity
M14 = experiment: Cytotoxicity against human M14 cells assessed as cell growth at 10 uM after 48 hrs by SRB assay relative to control; conditions: M14, 48 h, read-out: Activity
SK-MEL-2 = experiment: Cytotoxicity against human SK-MEL-2 cells assessed as cell growth at 10 uM after 48 hrs by SRB assay relative to control; conditions: SK-MEL-2, 48 h, read-out: Activity
SK-OV-3 = experiment: Cytotoxicity against human SKOV3 cells assessed as cell growth at 10 uM after 48 hrs by SRB assay relative to control; conditions: SK-OV-3, 48 h, read-out: Activity
A549 = experiment: Cytotoxicity against human A549 cells assessed as cell growth at 10 uM after 48 hrs by SRB assay relative to control; conditions: A549, 48 h, read-out: Activity
K562 = experiment: Cytotoxicity against human K562 cells assessed as cell growth at 10 uM after 48 hrs by SRB assay relative to control; conditions: K562, 48 h, read-out: Activity
RPMI-8226 = experiment: Cytotoxicity against human RPMI8226 cells assessed as cell growth at 10 uM after 48 hrs by SRB assay relative to control; conditions: RPMI-8226, 48 h, read-out: Activity
HOP-62 = experiment: Cytotoxicity against human HOP62 cells assessed as cell growth at 10 uM after 48 hrs by SRB assay relative to control; conditions: HOP-62, 48 h, read-out: Activity
NCI-H23 = experiment: Cytotoxicity against human NCI-H23 cells assessed as cell growth at 10 uM after 48 hrs by SRB assay relative to control; conditions: NCI-H23, 48 h, read-out: Activity
HCT-15 = experiment: Cytotoxicity against human HCT15 cells assessed as cell growth at 10 uM after 48 hrs by SRB assay relative to control; conditions: HCT-15, 48 h, read-out: Activity
SF-268 = experiment: Cytotoxicity against human SF268 cells assessed as cell growth at 10 uM after 48 hrs by SRB assay relative to control; conditions: SF-268, 48 h, read-out: Activity
SF-295 = experiment: Cytotoxicity against human SF295 cells assessed as cell growth at 10 uM after 48 hrs by SRB assay relative to control; conditions: SF-295, 48 h, read-out: Activity
SNB-19 = experiment: Cytotoxicity against human SNB19 cells assessed as cell growth at 10 uM after 48 hrs by SRB assay relative to control; conditions: SNB-19, 48 h, read-out: Activity
LOX IMVI = experiment: Cytotoxicity against human LOXIMVI cells assessed as cell growth at 10 uM after 48 hrs by SRB assay relative to control; conditions: read-out: Activity
Malme-3M = experiment: Cytotoxicity against human MALME-3M cells assessed as cell growth at 10 uM after 48 hrs by SRB assay relative to control; conditions: read-out: Activity
SK-MEL-28 = experiment: Cytotoxicity against human SK-MEL-28 cells assessed as cell growth at 10 uM after 48 hrs by SRB assay relative to control; conditions: SK-MEL-28, 48 h, read-out: Activity
SK-MEL-5 = experiment: Cytotoxicity against human SK-MEL-5 cells assessed as cell growth at 10 uM after 48 hrs by SRB assay relative to control; conditions: SK-MEL-5, 48 h, read-out: Activity
UACC-257 = experiment: Cytotoxicity against human UACC257 cells assessed as cell growth at 10 uM after 48 hrs by SRB assay relative to control; conditions: UACC-257, 48 h, read-out: Activity
OVCAR-3 = experiment: Cytotoxicity against human OVCAR3 cells assessed as cell growth at 10 uM after 48 hrs by SRB assay relative to control; conditions: OVCAR-3, 48 h, read-out: Activity
NCI/ADR-RES = experiment: Cytotoxicity against human NCI/ADR-RES cells assessed as cell growth at 10 uM after 48 hrs by SRB assay relative to control; conditions: read-out: Activity

SMILES: Cn1c2ccccc2c2c3nc(N)[nH]c(=O)c3c3c4ccccc4n(C)c3c21
- growth at 10 µM (A498): 114%
- growth at 10 µM (RXF 393): 94%
- growth at 10 µM (TK-10): 50.1%
- growth at 10 µM (PC-3): 59.1%
- growth at 10 µM (DU-145): 44.9%
- growth at 10 µM [1]: 113%
- growth at 10 µM (BT-549): 76.6%
- growth at 10 µM (T47D): 75%
- growth at 10 µM (SNB-75): 96.8%
- growth at 10 µM (U-251): 76.1%
- Activity (MDA-MB-435): 24.36%
- growth at 10 µM (IGROV-1): 65.8%
- growth at 10 µM (UO-31): 7.16%
- growth at 10 µM (MCF7): 25%
- growth at 10 µM (HCT-116): 34%
- growth at 10 µM (SW-620): 31.6%
- growth at 10 µM (M14): 34.9%
- growth at 10 µM (SK-MEL-2): 32%
- growth at 10 µM (SK-OV-3): 34.9%
- growth at 10 µM (A549): 58.5%
- growth at 10 µM (K562): 44.4%
- growth at 10 µM (RPMI-8226): 61.4%
- growth at 10 µM (HOP-62): 95.2%
- growth at 10 µM (NCI-H23): 65.4%
- growth at 10 µM (HCT-15): 43.7%
- growth at 10 µM (SF-268): 73.5%
- growth at 10 µM (SF-295): 86.6%
- growth at 10 µM (SNB-19): 122%
- growth at 10 µM (LOX IMVI): 60.9%
- growth at 10 µM (Malme-3M): 36.2%
- growth at 10 µM (SK-MEL-28): 91%
- growth at 10 µM (SK-MEL-5): 48.8%
- growth at 10 µM (UACC-257): 79.7%
- growth at 10 µM (OVCAR-3): 82.9%
- growth at 10 µM (NCI/ADR-RES): 48.7%
